Results reported in US11479551B2, “MTA-cooperative PRMT5 inhibitors” (Mirati Therapeutics, Inc., priority 2019, dated 2022).
Read-outs that look alike come from different tables or passages of the source.

Target: PRMT5/MEP50 complex (Homo sapiens (Human), UniProt O14744)
Assay: PRMT5:MEP50 FlashPlate Assay (histone H4 peptide substrate, plus and minus MTA)
Type: biochemical
Experimental: The PRMT5 inhibitory activity of compounds of the present invention was determined using either a PRMT5:MEP50 FlashPlate Assay (Reaction Biology Corporation) or a PRMT5:MEP50 HotSpot Assay (Reaction Biology Corporation).
1. PRMT5:MEP50 FlashPlate Assay

[1] = IC50 + 2 μM MTA (nM), in the presence of 2 μM MTA
[2] = in the absence of MTA, read-out: IC50

Sequence of PRMT5/MEP50 complex (O14744 2-637): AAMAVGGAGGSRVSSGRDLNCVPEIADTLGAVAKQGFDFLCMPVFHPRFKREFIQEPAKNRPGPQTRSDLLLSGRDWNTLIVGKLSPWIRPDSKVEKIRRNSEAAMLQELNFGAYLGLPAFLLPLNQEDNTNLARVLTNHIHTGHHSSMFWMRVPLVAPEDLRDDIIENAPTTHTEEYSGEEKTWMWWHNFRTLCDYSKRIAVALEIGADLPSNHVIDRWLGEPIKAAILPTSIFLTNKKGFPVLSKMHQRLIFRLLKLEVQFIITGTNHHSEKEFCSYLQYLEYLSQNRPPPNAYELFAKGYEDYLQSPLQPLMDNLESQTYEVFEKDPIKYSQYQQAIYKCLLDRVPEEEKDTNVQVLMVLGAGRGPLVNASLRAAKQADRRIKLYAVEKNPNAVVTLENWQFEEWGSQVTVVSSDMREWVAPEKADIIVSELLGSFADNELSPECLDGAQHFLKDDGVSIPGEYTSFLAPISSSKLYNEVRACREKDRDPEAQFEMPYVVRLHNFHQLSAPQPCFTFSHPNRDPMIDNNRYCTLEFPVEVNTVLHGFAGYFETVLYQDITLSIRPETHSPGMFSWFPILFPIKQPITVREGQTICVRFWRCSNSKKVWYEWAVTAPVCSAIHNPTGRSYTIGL
Sequence of PRMT5/MEP50 complex (Q9BQA1 2-342 partner): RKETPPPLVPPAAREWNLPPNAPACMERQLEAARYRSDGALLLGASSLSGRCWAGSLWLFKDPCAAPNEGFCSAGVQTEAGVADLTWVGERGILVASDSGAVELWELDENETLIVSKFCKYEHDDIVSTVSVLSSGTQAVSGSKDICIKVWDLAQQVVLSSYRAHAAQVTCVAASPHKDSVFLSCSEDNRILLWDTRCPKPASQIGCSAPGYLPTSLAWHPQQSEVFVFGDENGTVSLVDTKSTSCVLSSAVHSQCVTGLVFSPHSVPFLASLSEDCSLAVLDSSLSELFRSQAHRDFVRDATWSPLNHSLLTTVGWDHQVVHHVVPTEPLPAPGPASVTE

Row | Structure (SMILES) | IC50 [1] | IC50 [2]
1 | N#Cc1ccc2ncc(-c3ccc4c(=O)[nH]nc(CN)c4c3)n2c1 [Example 4-15, 3-(4-(aminomethyl)-1-oxo-1,2-dihydrophthalazin-6-yl)imidazo[1,2-a]pyridine-6-carbonitrile] | 260 nM | 3870 nM
2 | Cc1ccc2ncc(-c3ccc4c(=O)[nH]nc(CN)c4c3)n2n1 [Example 4-17, 4-(aminomethyl)-6-(6-methylimidazo[1,2-b]pyridazin-3-yl)phthalazin-1(2H)-one] | 150 nM | 2050 nM
3 | NCc1n[nH]c(=O)c2ccc(-c3cnc4ccc(Cl)nn34)cc12 [Example 4-18, 4-(aminomethyl)-6-(6-chloroimidazo[1,2-b]pyridazin-3-yl)phthalazin-1(2H)-one] | 280 nM | 4420 nM
4 | COc1ccn2c(-c3ccc4c(=O)[nH]nc(CN)c4c3)cnc2c1 [Example 4-19, 4-(aminomethyl)-6-(7-methoxyimidazo[1,2-a]pyridin-3-yl)phthalazin-1(2H)-one] | 380 nM | > 100000 nM
5 | Cc1ccc2ncc(-c3ccc4c(=O)[nH]nc(CN)c4c3)n2c1 [Example 4-20, 4-(aminomethyl)-6-(6-methylimidazo[1,2-a]pyridin-3-yl)phthalazin-1(2H)-one] | 47 nM | 1020 nM
6 | NCc1n[nH]c(=O)c2ccc(-c3cnc4ccc(F)cn34)cc12 [Example 4-21, 4-(aminomethyl)-6-(6-fluoroimidazo[1,2-a]pyridin-3-yl)phthalazin-1(2H)-one] | 70 nM | 1970 nM
7 | NCc1n[nH]c(=O)c2ccc(-c3cnc4c(F)cccn34)cc12 [Example 4-22, 4-(aminomethyl)-6-(8-fluoroimidazo[1,2-a]pyridin-3-yl)phthalazin-1(2H)-one] | 370 nM | 8680 nM
8 | Cc1nc2cnccn2c1-c1ccc2c(=O)[nH]nc(CN)c2c1 [Example 4-23, 4-(aminomethyl)-6-(2-methylimidazo[1,2-a]pyrazin-3-yl)phthalazin-1(2H)-one] | > 100000 nM | > 100000 nM
9 | Cc1cn2c(-c3ccc4c(=O)[nH]nc(CN)c4c3)cnc2cn1 [Example 4-24, 4-(aminomethyl)-6-(6-methylimidazo[1,2-a]pyrazin-3-yl)phthalazin-1(2H)-one] | 840 nM | 13400 nM
10 | NCc1n[nH]c(=O)c2ccc(-c3cnc4cnccn34)cc12 [Example 4-25, 4-(aminomethyl)-6-(imidazo[1,2-a]pyrazin-3-yl)phthalazin-1(2H)-one] | 1700 nM | > 100000 nM
11 | NCc1n[nH]c(=O)c2ccc(-c3cnc4cccnn34)cc12 [Example 4-26, 4-(aminomethyl)-6-(imidazo[1,2-b]pyridazin-3-yl)phthalazin-1(2H)-one] | 130 nM | 1730 nM
12 | NCc1n[nH]c(=O)c2ccc(-c3cnc4c(F)cc(Cl)cn34)cc12 [Example 4-27, 4-(aminomethyl)-6-(6-chloro-8-fluoroimidazo[1,2-a]pyridin-3-yl)phthalazin-1(2H)-one] | 1300 nM | > 100000 nM
13 | NCc1n[nH]c(=O)c2ccc(-c3cnc4cc(Cl)ccn34)cc12 [Example 4-28, 4-(aminomethyl)-6-(7-chloroimidazo[1,2-a]pyridin-3-yl)phthalazin-1(2H)-one] | 140 nM | 6790 nM
14 | NCc1n[nH]c(=O)c2ccc(-c3cnc4cc(F)ccn34)cc12 [Example 4-29, 4-(aminomethyl)-6-(7-fluoroimidazo[1,2-a]pyridin-3-yl)phthalazin-1(2H)-one] | 190 nM | 4030 nM
15 | Cc1ccn2c(-c3ccc4c(=O)[nH]nc(CN)c4c3)cnc2c1 [Example 4-30, 4-(aminomethyl)-6-(7-methylimidazo[1,2-a]pyridin-3-yl)phthalazin-1(2H)-one] | 400 nM | 4750 nM
16 | Cn1ncc(-c2ccc3c(=O)[nH]nc(CN)c3c2)c1C#N [Example 4-31, 4-(4-(aminomethyl)-1-oxo-1,2-dihydrophthalazin-6-yl)-1-methyl-1H-pyrazole-5-carbonitrile] | 410 nM | 7630 nM
17 | Cc1nc2ccc(F)cn2c1-c1ccc2c(=O)[nH]nc(CN)c2c1 [Example 4-33, 4-(aminomethyl)-6-(6-fluoro-2-methylimidazo[1,2-a]pyridin-3-yl)phthalazin-1(2H)-one] | > 100000 nM | > 100000 nM
18 | NCc1n[nH]c(=O)c2ccc(-c3cnc4ccc(Cl)cn34)cc12 [Example 4-34, 4-(aminomethyl)-6-(6-chloroimidazo[1,2-a]pyridin-3-yl)phthalazin-1(2H)-one] | 110 nM | 2800 nM
19 | N#Cc1ccn2c(-c3ccc4c(=O)[nH]nc(CN)c4c3)cnc2c1 [Example 4-35, 3-(4-(aminomethyl)-1-oxo-1,2-dihydrophthalazin-6-yl)imidazo[1,2-a]pyridine-7-carbonitrile] | 1100 nM | > 100000 nM
20 | NCc1n[nH]c(=O)c2ccc(-c3cnc4ccc(OC5CC5)cn34)cc12 [Example 4-37, 4-(aminomethyl)-6-(6-cyclopropoxyimidazo[1,2-a]pyridin-3-yl)phthalazin-1(2H)-one] | 1.1 nM | 213 nM

Row | Structure (SMILES) | IC50 [1] | IC50 [2]
21 | NCc1n[nH]c(=O)c2ccc(-c3cnc4ccc(OC(F)(F)F)cn34)cc12 [Example 4-38, 4-(aminomethyl)-6-(6-(trifluoromethoxy)imidazo[1,2-a]pyridin-3-yl)phthalazin-1(2H)-one] | 25 nM | 850 nM
22 | NCc1n[nH]c(=O)c2ccc(-c3cnc4ccc(-c5ccccc5)cn34)cc12 [Example 4-39, 4-(aminomethyl)-6-(6-phenylimidazo[1,2-a]pyridin-3-yl)phthalazin-1(2H)-one] | 1.7 nM | 109 nM
23 | N#Cc1c[nH]c2ncc(-c3ccc4c(=O)[nH]nc(CN)c4c3)cc12 [Example 4-41, 5-(4-(aminomethyl)-1-oxo-1,2-dihydrophthalazin-6-yl)-1H-pyrrolo[2,3-b]pyridine-3-carbonitrile] | 56 nM | 4810 nM
24 | NCc1n[nH]c(=O)c2ccc(-c3cnc4[nH]cc(F)c4c3)cc12 [Example 4-42, 4-(aminomethyl)-6-(3-fluoro-1H-pyrrolo[2,3-b]pyridin-5-yl)phthalazin-1(2H)-one] | 45 nM | 1380 nM
25 | NCc1n[nH]c(=O)c2ccc(-c3cnc4[nH]cc(C(F)(F)F)c4c3)cc12 [Example 4-43, 4-(aminomethyl)-6-(3-(trifluoromethyl)-1H-pyrrolo[2,3-b]pyridin-5-yl)phthalazin-1(2H)-one] | 32 nM | 1520 nM
26 | COCc1c[nH]c2ncc(-c3ccc4c(=O)[nH]nc(CN)c4c3)cc12 [Example 4-46, 4-(aminomethyl)-6-(3-(methoxymethyl)-1H-pyrrolo[2,3-b]pyridin-5-yl)phthalazin-1(2H)-one] | 0.6 nM | 329 nM
27 | NCc1n[nH]c(=O)c2ccc(-c3cnc4[nH]cc(CO)c4c3)cc12 [Example 4-47, 4-(aminomethyl)-6-(3-(hydroxymethyl)-1H-pyrrolo[2,3-b]pyridin-5-yl)phthalazin-1(2H)-one] | 19 nM | 667 nM
28 | COc1c(-c2ccc3c(=O)[nH]nc(CN)c3c2)cnn1C [Example 4-48, 4-(aminomethyl)-6-(5-methoxy-1-methyl-1H-pyrazol-4-yl)phthalazin-1(2H)-one] | 22 nM | 750 nM
29 | Cn1ncc(-c2ccc3c(=O)[nH]nc(CN)c3c2)c1Cl [Example 4-49, 4-(aminomethyl)-6-(5-chloro-1-methyl-pyrazol-4-yl)-2H-phthalazin-1-one] | 300 nM | 5930 nM
30 | NCc1n[nH]c(=O)c2ccc(-c3cncc(Cc4ccccc4)c3)cc12 [Example 4-50, 4-(aminomethyl)-6-(5-benzylpyridin-3-yl)phthalazin-1(2H)-one] | 22 nM | 456 nM
31 | NCc1n[nH]c(=O)c2ccc(-c3cncc(S(=O)(=O)c4ccccc4)c3)cc12 [Example 4-52, 4-(aminomethyl)-6-(5-(phenylsulfonyl)pyridin-3-yl)phthalazin-1(2H)-one] | 18 nM | 669 nM
32 | CN(C)c1cncc(-c2ccc3c(=O)[nH]nc(CN)c3c2)c1 [Example 4-53, 4-(aminomethyl)-6-(5-(dimethylamino)pyridin-3-yl)phthalazin-1(2H)-one] | 55 nM | 1140 nM
33 | NCc1n[nH]c(=O)c2ccc(-c3cnsc3-c3ccccc3)cc12 [Example 4-54, 4-(aminomethyl)-6-(5-phenylisothiazol-4-yl)phthalazin-1(2H)-one] | 77 nM | 1550 nM
34 | NCc1n[nH]c(=O)c2ccc(-c3cncc(Sc4ccccc4)c3)cc12 [Example 4-55, 4-(aminomethyl)-6-(5-(phenylthio)pyridin-3-yl)phthalazin-1(2H)-one] | 1.2 nM | 30 nM
35 | NCc1n[nH]c(=O)c2ccc(-c3cncc(Sc4cccc(Cl)c4)c3)cc12 [Example 4-56, 4-(aminomethyl)-6-(5-((3-chlorophenyl)thio)pyridin-3-yl)phthalazin-1(2H)-one] | 3.8 nM | 107 nM
36 | NCc1n[nH]c(=O)c2ccc(-c3cncc(Sc4ccc(Cl)cc4)c3)cc12 [Example 4-57, 4-(aminomethyl)-6-(5-((4-chlorophenyl)thio)pyridin-3-yl)phthalazin-1(2H)-one] | 11 nM | 85 nM
37 | NCc1n[nH]c(=O)c2ccc(-c3cncc(Sc4ccccc4Cl)c3)cc12 [Example 4-58, 4-(aminomethyl)-6-(5-((2-chlorophenyl)thio)pyridin-3-yl)phthalazin-1(2H)-one] | 1.8 nM | 36 nM
38 | Cc1ccccc1Sc1cncc(-c2ccc3c(=O)[nH]nc(CN)c3c2)c1 [Example 4-59, 4-(aminomethyl)-6-(5-(o-tolylthio)pyridin-3-yl)phthalazin-1(2H)-one] | 2.1 nM | 68 nM
39 | Cc1ccc(Sc2cncc(-c3ccc4c(=O)[nH]nc(CN)c4c3)c2)cc1 [Example 4-60, 4-(aminomethyl)-6-(5-(p-tolylthio)pyridin-3-yl)phthalazin-1(2H)-one] | 2.3 nM | 117 nM
